Reference: US20140335019A1, “COMPOSITIONS AND METHODS FOR THE TREATMENT AND ANALYSIS OF NEUROLOGICAL DISORDERS” (THE REGENTS OF THE UNIVERSITY OF MICHIGAN, priority 2011, published 2014)
“Also recorded” adds a separate entry of the source. Each block holds one compound with its values, some of them ahead of it.

Key:
Aβ species = settings: cited from earlier work
[1] = tested on: human SK-N-BE(2)-M17 (M17) neuroblastoma cells; settings: for concentration with no toxicity: human, 24 h
Description: (§2) Preliminary cytotoxicity studies of the compounds in human SK-N-BE(2)-M17 (M17) neuroblastoma cells were carried out using a standard colorimetric assay for measuring cell growth (i.e., MTT assay; MTT=3-(4,5-dimethylthiazol-2-yl)-2,5-diphenyltetrazolium bromide).

[2] = solution speciation by UV-vis variable-pH titrations; type: physicochemical; settings: physiological pH (ca. 7.4)
[3] = biological target: Aβ monomer pretreated with ZnCl2 (Homo sapiens, UniProt P05067); assay: NMR studies of compound with Aβ monomer pretreated with ZnCl2; type: binding
Chain of Aβ monomer pretreated with ZnCl2 (P05067 672-711 limits assumed): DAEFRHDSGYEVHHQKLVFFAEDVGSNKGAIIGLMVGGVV
Description: (§1) While an understanding of the mechanism is not necessary to practice the invention and the invention is not limited to any particular mechanism of action, these observations imply that the compounds may target metal ions associated with Aβ species.

Aβ aggregates = Aβ aggregates (Homo sapiens, UniProt P05067); assay: ELISA of interaction with Aβ aggregates; type: binding; settings: similar to ThT
Chain of Aβ aggregates (P05067 672-711 limits assumed): as above
Description: as §1

[4] = tested on: Aβ species in human AD brain tissue homogenates; assay: treatment of human AD brain tissue homogenates, Western blotting with 6E10; type: biochemical; settings: 24 h treatment, frontal cortex homogenates
Description: The frontal cortex section of the human AD brain was selected because it generally contains high amounts of Aβ aggregates. […] Also, using these compounds, similar to in vitro disaggregation studies with synthetic Aβ peptide above, perturbing metal-Aβ interaction is contemplated to find use for disassembling Aβ aggregates in brain tissue.

M17 cells = assay: cytotoxicity of metal (CuII or ZnII)-associated Aβ species with compounds, MTT assay; type: cell-based, human; settings: Aβ 20 μM, metal ions 20 μM, compound 40 μM, 24 h
Description: Then, the cells were incubated for 24 h.
as §2

[5] = tested on: Tg2576 hAPP-transgenic mice; assay: in vivo activity in Tg2576 hAPP-transgenic mice (4G8 and Congo red staining of brain slices); settings: 1 mg/kg oral gavage every two days for two months; relative to control vehicle; p<0.01
Description: During the development of embodiments of the technology provided herein, experiments were conducted to verify the efficacy of pharmaceutical compositions according to the technology by testing in a murine model. Pharmaceutical compositions comprising compounds described herein were administered every two days at 1 mg/kg (0.1 ml/10 g body weight) to four female Tg2576 hAPP-transgenic mice (18 months old) for two months (total 30 times in 60 days) by oral gavage.
Efficacy was evaluated after drug administration. Tissue slices […] long were prepared from cerebrums of Tg2576 mice by a procedure comprising rapid freezing and cutting using a cryostat. To verify the degree of amyloid beta accumulation, the brain tissue slices were stained by APP/Aβ17-24-immunospecific antibody 4G8. In addition, to identify the amount of mature amyloid plaques that were generated in the presence of Apolipoprotein E (ApoE), sample were stained with Congo red.

[6] = in vivo biodistribution of radiolabeled compound; design: species or system C57B1/6 mice
Description: Healthy female C57B1/6 mice (n=18) were administered by bolus intravenous injection with [^3H]-3b (2.5 μCi) each. The mice were divided into 3 groups of 6. Each group was sacrificed at 10 min, 60 min and 120 min post injection. Biodistribution was carried out by harvesting blood from cardiac puncture and tissue (liver, heart, kidneys, lungs, small intestine, muscle, spleen, feces, bladder, bone and brain). The brain was divided into four different sections (cerebellum, frontal cortex, parietal cortex and striatum). The tissue was digested and counted for accumulated activity.

SMILES: CN(C)c1ccc(/C=C/c2ccc(I)cc2)cc1 [p-1-stilbene, (E)-4-(4-iodostyryl)-N,N-dimethylaniline]
binding affinity to Aβ species (Aβ species): strong binding affinity

SMILES: CN(C)c1ccc(N=Cc2ccccn2)cc1 [2b, N^1,N^1-dimethyl-N^4-(pyridin-2-ylmethylene)benzene-1,4-diamine]
cytotoxicity compared with CQ [1]: less cytotoxic than CQ
concentration with no toxicity [1]: up to 100 μM

main species in solution [2]: neutral form
interaction with Aβ aggregates (ELISA) (Aβ aggregates): interacted with Aβ aggregates
SMILES: CN(C)c1ccc(NCc2ccccn2)cc1 [3b, N^1,N^1-Dimethyl-N^4-(pyridin-2-ylmethyl)benzene-1,4-diamine]
complex formation with ZnII-pretreated Aβ monomer [3]: a ternary complex containing Aβ, ZnII, and the molecule may be generated
Aβ species visualized by Western blotting with 6E10 [4]: more gel-permeable and lower MW Aβ species
toxicity induced by metal-Aβ (M17 cells): capable of reducing metal-Aβ neurotoxicity; also recorded: noticeably diminished toxicity
Aβ immunoreactivity (4G8 staining) [5]: reduced
congophilicity (Congo red staining) [5]: reduced
concentration with no toxicity [1]: up to 40 μM

BBB crossing ([6]; bolus intravenous injection, 2.5 μCi, 10, 60 and 120 min post injection): can cross the BBB
SMILES: CN(C)c1ccc(NCc2ccccn2)cc1 [[^3H]-3b]
brain uptake ([6]; cerebellum, frontal cortex, parietal cortex, striatum, 10, 60, 120 min): relatively consistent within the time points chosen

SMILES: CN(C)c1ccc(-c2cn3cc(I)ccc3n2)cc1 [IMPY, 4-(6-iodoimidazo[1,2-α]pyridin-2-yl)-N,N-dimethylaniline]
binding affinity to Aβ species (Aβ species): strong binding affinity
